The source of these data is PubChem BioAssay AID540371 (The Scripps Research Institute Molecular Screening Center, 2011).

Molecules are shown by their SMILES. Calls of active or inactive are those of the source. How the calls were made is not given here. Bounds are passed on as bounds.

In this experiment the target is Melanin-concentrating hormone receptor 1 (Homo sapiens) (UniProt Q99705). The experiment in a line: MCHR1 antagonists, late-stage follow-up, selectivity assay for GPR7 antagonist project, cell-based, fluorescence, dose response, set 3 (AID 540371). The conditions noted are these: MCHR1-expressing cells.

Take `COc1ccc(Oc2c(Cl)cnn(C(c3ccccc3)c3ccccc3)c2=O)cc1`: the IC50 result (run 1) was “inactive”. Besides, the IC50 was > 20 µM (inactive) (run 2) and 7.22 µM (run 3).

With `COc1ccc(Oc2c(Cl)cnn(Cc3ccc4ccccc4c3)c2=O)cc1`, the IC50 (run 1) is 4.01 µM. For the same compound, the IC50 result is “inactive” (run 2) and “inactive” (run 3).

Turning to `CCOC(=O)C(c1ccccc1)n1ncc(Cl)c(Oc2ccc(OC)cc2)c1=O` (stereo not drawn), the IC50 reads like this: (run 1) 8.48 µM; (run 3) 8.11 µM. In addition, where the note is “run 2”, the IC50 entry was “inactive”.

Take `CCOc1ccc(Oc2c(Cl)cnn(Cc3cccc4ccccc34)c2=O)cc1`: the IC50 is 1.59 µM (run 1), 5.22 µM (run 2) and 6.71 µM (run 3).

In the case of `COc1ccc(Oc2c(Cl)cnn(C(C(=O)c3ccccc3)c3ccccc3)c2=O)cc1` (stereo not drawn), the IC50 entry (run 1) is “inactive”. In addition, the IC50 is > 20 µM (inactive) (run 2) and > 20 µM (inactive) (run 3).

Turning to `COc1ccc(Oc2c(Cl)cnn(Cc3ccccc3)c2=O)cc1`, the IC50 (run 1) was 8.51 µM. Also, the IC50 entry was “inactive” (run 2) and “inactive” (run 3).

With `COc1ccc(Oc2c(Cl)cnn(Cc3ccccc3C)c2=O)cc1`, the IC50 runs as follows: (run 1) 3.06 µM; (run 2) 7.68 µM; (run 3) 5.64 µM.

As to `COc1ccc(Oc2c(Cl)cnn(Cc3cc(C)cc(C)c3)c2=O)cc1`, the IC50 is 1.5 µM (run 1) and 6.46 µM (run 3). In addition, the IC50 result (run 2) is “inactive”.

For the compound `COc1ccc(Oc2c(Cl)cnn(Cc3ccccc3-c3ccccc3)c2=O)cc1`, the IC50 was 1.12 µM (run 1), 2.24 µM (run 2) and 4.59 µM (run 3).

Consider `COc1ccc(Oc2c(C#N)cnn(Cc3cccc4ccccc34)c2=O)cc1`, for which the IC50 (run 1) was 2.09 µM, the IC50 (run 2) is 2.25 µM and the IC50 (run 3) is 2.22 µM.

`O=c1c(Oc2ccc3c(c2)CCO3)c(Cl)cnn1Cc1cccc2ccccc12`: the IC50 reads like this: (run 1) 7.4 µM; (run 2) > 20 µM (inactive); (run 3) > 20 µM (inactive).

As to `COc1ccc(Oc2c(Cl)cnn(Cc3c4ccccc4cc4ccccc34)c2=O)cc1`, the IC50 is > 20 µM (inactive) (run 1) and > 20 µM (inactive) (run 2). For the same compound, the IC50 result (run 3) was “inactive”.

For the compound `COc1ccc(Oc2c(Cl)cnn(Cc3c(F)cccc3F)c2=O)cc1`, the IC50 entry was “inactive” (run 1), “inactive” (run 2) and “inactive” (run 3).

On to `COc1ccc(Nc2c(Cl)cnn(Cc3cccc4ccccc34)c2=O)cc1`, for which the IC50 entry was “inactive” (run 1) and “inactive” (run 2). For the same compound, where the note is “run 3”, the IC50 was > 20 µM (inactive).

For the compound `CCCOc1ccc(Oc2c(Cl)cnn(C3c4ccccc4-c4ccccc43)c2=O)cc1`, the IC50 runs as follows: (run 1) > 20 µM (inactive); (run 2) > 20 µM (inactive); (run 3) > 20 µM (inactive).

For `COc1ccc(Oc2c(Br)cnn(Cc3cccc4ccccc34)c2=O)cc1`, the half-maximal inhibitory concentration (IC50) was 0.892 µM (run 1), 2.14 µM (run 2) and 1.66 µM (run 3).

`CCOc1ccc(Oc2c(S(C)=O)cnn(Cc3cccc4ccccc34)c2=O)cc1` (stereo not drawn): the half-maximal inhibitory concentration (IC50) (run 1) was 6.19 µM. Further, the IC50 result (run 2) is “inactive” and the IC50 entry (run 3) is “inactive”.

As for `C=Cc1nn(Cc2ccccc2C)c(=O)c(Oc2ccc(OC)cc2)c1C=C`, the 50% inhibitory concentration (IC50) by setting is: (run 1) 1.43 µM; (run 2) 1.31 µM; (run 3) 1.45 µM.

With `COc1ccc(Oc2c(Cl)c(C#N)nn(Cc3ccccc3C)c2=O)cc1`, the IC50 is 2.52 µM (run 1), 2.33 µM (run 2) and 2.71 µM (run 3).

In the case of `CCc1ccc(Oc2c(Cl)cnn(Cc3cccc4ccccc34)c2=O)cc1`, the IC50 (run 1) was 1.95 µM, the IC50 (run 2) was 1.72 µM and the IC50 (run 3) is 2.08 µM.

Take `COc1ccc(Sc2c(Cl)cnn(Cc3cccc4ccccc34)c2=O)cc1`: the IC50 result runs as follows: (run 1) “inactive”; (run 2) “inactive”; (run 3) “inactive”.

For `COc1ccc(Oc2c(Cl)cnn(CC(=O)C(c3ccccc3)c3ccccc3)c2=O)cc1`, the IC50 is, setting by setting: (run 1) 2.92 µM; (run 2) 2.87 µM; (run 3) 5.49 µM.

On to `CCCOc1ccc(Oc2c(Cl)cnn(Cc3cccc4ccccc34)c2=O)cc1`, for which the IC50 entry (run 1) was “inactive”. Besides, the IC50 is > 20 µM (inactive) (run 2) and > 20 µM (inactive) (run 3).

In the case of `COc1ccc(Oc2c(Cl)cnn(Cc3cccc4ccccc34)c2=O)cc1`, the IC50 by setting is: (run 1) 0.988 µM; (run 2) 1.7 µM; (run 3) 1.61 µM.

As for `COc1ccc(Oc2c(Cl)cnn(Cc3ccccc3C(F)(F)F)c2=O)cc1`, the IC50 (run 1) is 4.49 µM, the half-maximal inhibitory concentration (IC50) (run 2) was 4.57 µM and the IC50 (run 3) was 3.34 µM.

As to `COc1ccc(Oc2c(Cl)cnn(Cc3c(C)ccc4ccccc34)c2=O)cc1`, the IC50 reads like this: (run 1) 0.77 µM; (run 2) 0.815 µM; (run 3) 0.836 µM.

For `COc1ccc(Oc2c(Cl)cnn(C3c4ccccc4-c4ccccc43)c2=O)cc1`, the IC50 reads like this: (run 1) > 20 µM (inactive); (run 2) > 20 µM (inactive); (run 3) > 20 µM (inactive).

As for `CCOC(=O)C(c1cccc2ccccc12)n1ncc(Cl)c(Oc2ccc(OC)cc2)c1=O` (stereo not drawn), the IC50 is, setting by setting: (run 1) > 20 µM (inactive); (run 2) > 20 µM (inactive); (run 3) > 20 µM (inactive).

`CCOc1ccc(Oc2c(Cl)cnn(C3c4ccccc4-c4ccccc43)c2=O)cc1`: the IC50 was > 20 µM (inactive) (run 1), > 20 µM (inactive) (run 2) and > 20 µM (inactive) (run 3).

Consider `CCOc1ccc(Oc2c(Cl)c(Br)nn(Cc3cccc4ccccc34)c2=O)cc1`, for which the IC50 is, setting by setting: (run 1) 2.39 µM; (run 2) 6.02 µM. Further, under “run 3”, the IC50 result was “inactive”.

Take `COc1ccc(Oc2c(Cl)cnn(Cc3cccc4cnccc34)c2=O)cc1`: the IC50 is, setting by setting: (run 1) 5.15 µM; (run 2) 4.96 µM; (run 3) 5.67 µM.
